Active and inactive are the calls of the source.
Assays:
[1] = molecular target: Voltage-dependent T-type calcium channel subunit alpha-1H (Homo sapiens, UniProt O95180); type: functional;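 further: channel activity triggered by adding a high calcium stimulation buffer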
[2] = A Cell Based Secondary Assay To Explore Cytotoxicity of Compounds that Sensitize Mycobacterium Tuberculosis to Beta-Lactam Antibiotics.; type: functional
Prothrombin = Prothrombin (Homo sapiens, UniProt P00734); assay: Thrombin 1536 HTS Dose Response Confirmation. [Related pubchem assays: 1046 (Thrombin 1536 HTS; hits were confirmed in this assay)]; type: functional
[3] = molecular target: T1, Replicative DNA helicase DnaB (Mycobacterium tuberculosis, UniProt P9WMR3); assay: DnaB intein splicing inhibitors, dose response, biochemical, cell-free fluorescence (AID 449749); type: functional
T1 sequence (P9WMR3 whole entry): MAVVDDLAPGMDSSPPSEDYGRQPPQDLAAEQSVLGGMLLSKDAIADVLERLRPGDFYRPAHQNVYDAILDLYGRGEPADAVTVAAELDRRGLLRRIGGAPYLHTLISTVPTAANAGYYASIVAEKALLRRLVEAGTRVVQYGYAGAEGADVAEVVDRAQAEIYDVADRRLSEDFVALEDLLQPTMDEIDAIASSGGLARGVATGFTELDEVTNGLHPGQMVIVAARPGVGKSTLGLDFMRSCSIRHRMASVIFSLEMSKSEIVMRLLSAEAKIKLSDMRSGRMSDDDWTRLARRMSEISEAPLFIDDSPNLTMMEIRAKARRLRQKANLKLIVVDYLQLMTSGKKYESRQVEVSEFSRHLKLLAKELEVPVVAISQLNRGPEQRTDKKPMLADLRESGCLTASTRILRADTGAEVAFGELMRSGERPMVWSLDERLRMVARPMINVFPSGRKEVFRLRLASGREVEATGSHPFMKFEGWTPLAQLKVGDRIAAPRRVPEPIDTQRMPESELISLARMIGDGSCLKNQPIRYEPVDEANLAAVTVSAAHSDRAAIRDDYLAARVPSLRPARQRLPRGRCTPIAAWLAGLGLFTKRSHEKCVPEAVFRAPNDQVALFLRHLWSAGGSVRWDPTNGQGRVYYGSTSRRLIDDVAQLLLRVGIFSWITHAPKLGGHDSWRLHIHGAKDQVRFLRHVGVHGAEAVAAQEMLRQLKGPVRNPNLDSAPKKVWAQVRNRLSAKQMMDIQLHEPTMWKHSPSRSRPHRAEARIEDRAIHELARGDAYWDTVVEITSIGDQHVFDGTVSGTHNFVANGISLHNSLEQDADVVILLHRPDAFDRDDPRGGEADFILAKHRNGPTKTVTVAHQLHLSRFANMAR

Protein RecA = molecular target: T2, Protein RecA (Mycobacterium tuberculosis, UniProt P9WHJ3); assay: Fluorescence Cell-Free Homogeneous Dose Retest to Identify Inhibitors of RecA-Intein Splicing Activity. [Related pubchem assays (depositor defined):AID2097, AID2223, AID489010, AID492950]; type: functional
T2 sequence (P9WHJ3 whole entry): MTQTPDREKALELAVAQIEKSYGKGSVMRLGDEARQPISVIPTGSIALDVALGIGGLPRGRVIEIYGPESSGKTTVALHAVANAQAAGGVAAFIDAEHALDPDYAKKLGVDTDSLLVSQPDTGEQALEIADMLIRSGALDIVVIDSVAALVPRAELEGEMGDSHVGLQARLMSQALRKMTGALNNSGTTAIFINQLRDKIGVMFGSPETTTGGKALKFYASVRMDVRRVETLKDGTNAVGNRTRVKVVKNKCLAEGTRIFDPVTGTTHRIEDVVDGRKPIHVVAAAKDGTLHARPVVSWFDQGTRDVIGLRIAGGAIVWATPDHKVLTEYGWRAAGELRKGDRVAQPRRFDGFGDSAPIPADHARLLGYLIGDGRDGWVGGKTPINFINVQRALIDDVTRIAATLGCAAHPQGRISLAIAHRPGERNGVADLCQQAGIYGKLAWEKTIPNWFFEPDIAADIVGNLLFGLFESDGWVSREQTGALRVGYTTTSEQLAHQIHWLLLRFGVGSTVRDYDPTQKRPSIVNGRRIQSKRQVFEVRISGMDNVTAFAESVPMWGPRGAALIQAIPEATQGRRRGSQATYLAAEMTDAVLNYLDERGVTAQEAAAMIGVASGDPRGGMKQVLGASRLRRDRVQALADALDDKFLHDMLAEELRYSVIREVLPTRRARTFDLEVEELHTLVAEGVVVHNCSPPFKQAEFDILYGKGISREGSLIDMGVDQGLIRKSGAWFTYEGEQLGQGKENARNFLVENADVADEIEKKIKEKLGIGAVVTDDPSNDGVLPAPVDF

Coagulation factor XII = molecular target: T3, Coagulation factor XII (Homo sapiens, UniProt P00748); type: functional;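 further: activated factor XIIa alpha cleaving a fluorogenic AMC peptide substrate; inhibitor potency from loss of enzyme activity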
T3 sequence (P00748 whole entry): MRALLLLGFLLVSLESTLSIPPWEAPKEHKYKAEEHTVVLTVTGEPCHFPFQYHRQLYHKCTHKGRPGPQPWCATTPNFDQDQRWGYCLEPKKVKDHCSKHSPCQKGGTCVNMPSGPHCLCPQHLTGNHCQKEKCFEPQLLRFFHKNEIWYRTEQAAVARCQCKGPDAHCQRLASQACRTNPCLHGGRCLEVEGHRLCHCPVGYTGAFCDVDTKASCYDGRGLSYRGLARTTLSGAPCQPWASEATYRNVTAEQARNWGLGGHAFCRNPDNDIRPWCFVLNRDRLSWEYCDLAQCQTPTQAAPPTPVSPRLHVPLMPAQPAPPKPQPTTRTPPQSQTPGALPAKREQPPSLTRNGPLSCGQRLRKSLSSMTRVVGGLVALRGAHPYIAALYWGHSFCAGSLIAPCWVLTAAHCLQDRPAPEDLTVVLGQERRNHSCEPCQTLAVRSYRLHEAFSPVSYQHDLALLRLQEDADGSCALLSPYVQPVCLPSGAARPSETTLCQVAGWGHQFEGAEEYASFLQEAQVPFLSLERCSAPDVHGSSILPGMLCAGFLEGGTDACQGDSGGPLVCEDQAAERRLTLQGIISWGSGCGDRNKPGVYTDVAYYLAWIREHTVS

[4] = molecular target: T4, Voltage-gated N-type calcium channel alpha-1B subunit/Amyloid beta A4 precursor protein-binding family A member 1 (Homo sapiens, UniProt Q00975+Q02410); type: protein assay
[5] = molecular target: T4, Voltage-gated N-type calcium channel alpha-1B subunit/Amyloid beta A4 precursor protein-binding family A member 1; type: protein assay; remark: listed apart in the source
H9c2 = assay: cells; type: functional, cell-based; conditions: Rattus norvegicus, H9c2, Myocardium;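 further: confirmatory concentration-response retest of ultra-high-throughput screening hits for modulation of myocardial damage; cell death induced by hydrogen peroxide oxidative stress; compound pretreatment for 60 min then peroxide exposure for 2 h; potency is for protecting the cells against peroxide damage rather than for killing them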
Leucine aminopeptidase = molecular target: T5, Leucine aminopeptidase (Plasmodium falciparum 3D7, UniProt Q8IL11); assay: P. falciparum M17LAP inhibitors, primary screen, biochemical, fluorogenic H-Leu-NHMec substrate, 1536-well (AID 1619); type: functional
T5 sequence (Q8IL11 whole entry): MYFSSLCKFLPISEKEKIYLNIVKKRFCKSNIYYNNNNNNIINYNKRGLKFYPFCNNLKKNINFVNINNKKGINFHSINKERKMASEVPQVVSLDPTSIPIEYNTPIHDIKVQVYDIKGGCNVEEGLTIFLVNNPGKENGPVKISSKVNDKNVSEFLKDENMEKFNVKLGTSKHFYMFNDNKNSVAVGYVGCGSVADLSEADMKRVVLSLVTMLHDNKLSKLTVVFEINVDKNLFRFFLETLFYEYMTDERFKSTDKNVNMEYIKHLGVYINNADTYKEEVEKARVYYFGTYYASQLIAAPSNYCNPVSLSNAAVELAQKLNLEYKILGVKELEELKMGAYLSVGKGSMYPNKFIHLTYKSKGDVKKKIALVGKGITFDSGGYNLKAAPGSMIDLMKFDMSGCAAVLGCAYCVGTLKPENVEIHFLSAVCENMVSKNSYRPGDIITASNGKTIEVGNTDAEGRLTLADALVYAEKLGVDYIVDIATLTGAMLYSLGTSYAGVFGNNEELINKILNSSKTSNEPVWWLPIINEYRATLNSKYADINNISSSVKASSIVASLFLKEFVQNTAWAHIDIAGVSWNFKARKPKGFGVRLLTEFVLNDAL

[6] = molecular target: Eukaryotic translation initiation factor 4E (Mus musculus, UniProt P63073); assay: eIF4E–eIF4G protein interaction inhibitors, dose response, biochemical, TR-FRET (AID 855); type: functional;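 further: potency for disrupting eIF4E binding to eIF4GI seen as loss of FRET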
[7] = growth suppression of PTEN-null colon cells, dose response, cell-based, HCT116 PTEN knockout (AID 1047); type: functional;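 further: HCT116 colon tumor cells with PTEN knocked out; cells exposed to compound for 60 hours before readout; potency for loss of cell viability measured by luminescence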
[8] = growth suppression of beta-catenin-knockout colon cells, dose response, cell-based, HCT116, human colon tumor (AID 1045); type: functional;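 further: HCT116 colon tumor cells with beta catenin knocked out; cells exposed to compound for 60 hours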
[9] = miR-122 activators in hepatoma reporter cells, dose response, cell-based, Huh7 psiCHECK-miR122, Renilla luciferase, cherry-picked (AID 651956); type: functional;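 further: huh7 hepatoma cells stably carrying a psiCHECK-2 miR-122 sensor plasmid; renilla luciferase signal reporting endogenous miR-122 activity after 48 h compound exposure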
[10] = HEK293T cytotoxicity, dose response, cytotoxicity control for miR-122 modulator project, cell-based, activator set, cherry-pick (AID 720690); type: functional;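 further: HEK293T human cells scored for general mammalian cytotoxicity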
[11] = Luminescence Cell-Based Dose Response HTS to Identify Inhibitors of 5'UTR Stem-Loop Driven Prion Protein mRNA Translation in H4 Neuroglioblastoma Cells. [Related pubchem assays: 1827 (Project Summary), 1813 (Primary HTS)]; type: functional
[12] = THP-1 cell cytotoxicity, dose response, cytotoxicity control for non-replicating M. tuberculosis project (AID 489025); type: functional
cells = type: functional
[13] = inhibitors of SNCA 5'UTR-driven reporter translation, confirmation, H4 neuroglioma cells, luminescence (AID 1988); type: functional, cell-based
[14] = HepG2 cell cytotoxicity, dose response, cytotoxicity control for non-replicating M. tuberculosis project (AID 489018); type: functional; conditions: Mycobacterium tuberculosis
[15] = inhibitors of firefly luciferase expression or activity, dose response, H4 neuroglioma cells, luminescence (AID 1990); type: functional, cell-based

Voltage-dependent T-type calcium channel subunit alpha-1H, sequence (O95180 whole entry): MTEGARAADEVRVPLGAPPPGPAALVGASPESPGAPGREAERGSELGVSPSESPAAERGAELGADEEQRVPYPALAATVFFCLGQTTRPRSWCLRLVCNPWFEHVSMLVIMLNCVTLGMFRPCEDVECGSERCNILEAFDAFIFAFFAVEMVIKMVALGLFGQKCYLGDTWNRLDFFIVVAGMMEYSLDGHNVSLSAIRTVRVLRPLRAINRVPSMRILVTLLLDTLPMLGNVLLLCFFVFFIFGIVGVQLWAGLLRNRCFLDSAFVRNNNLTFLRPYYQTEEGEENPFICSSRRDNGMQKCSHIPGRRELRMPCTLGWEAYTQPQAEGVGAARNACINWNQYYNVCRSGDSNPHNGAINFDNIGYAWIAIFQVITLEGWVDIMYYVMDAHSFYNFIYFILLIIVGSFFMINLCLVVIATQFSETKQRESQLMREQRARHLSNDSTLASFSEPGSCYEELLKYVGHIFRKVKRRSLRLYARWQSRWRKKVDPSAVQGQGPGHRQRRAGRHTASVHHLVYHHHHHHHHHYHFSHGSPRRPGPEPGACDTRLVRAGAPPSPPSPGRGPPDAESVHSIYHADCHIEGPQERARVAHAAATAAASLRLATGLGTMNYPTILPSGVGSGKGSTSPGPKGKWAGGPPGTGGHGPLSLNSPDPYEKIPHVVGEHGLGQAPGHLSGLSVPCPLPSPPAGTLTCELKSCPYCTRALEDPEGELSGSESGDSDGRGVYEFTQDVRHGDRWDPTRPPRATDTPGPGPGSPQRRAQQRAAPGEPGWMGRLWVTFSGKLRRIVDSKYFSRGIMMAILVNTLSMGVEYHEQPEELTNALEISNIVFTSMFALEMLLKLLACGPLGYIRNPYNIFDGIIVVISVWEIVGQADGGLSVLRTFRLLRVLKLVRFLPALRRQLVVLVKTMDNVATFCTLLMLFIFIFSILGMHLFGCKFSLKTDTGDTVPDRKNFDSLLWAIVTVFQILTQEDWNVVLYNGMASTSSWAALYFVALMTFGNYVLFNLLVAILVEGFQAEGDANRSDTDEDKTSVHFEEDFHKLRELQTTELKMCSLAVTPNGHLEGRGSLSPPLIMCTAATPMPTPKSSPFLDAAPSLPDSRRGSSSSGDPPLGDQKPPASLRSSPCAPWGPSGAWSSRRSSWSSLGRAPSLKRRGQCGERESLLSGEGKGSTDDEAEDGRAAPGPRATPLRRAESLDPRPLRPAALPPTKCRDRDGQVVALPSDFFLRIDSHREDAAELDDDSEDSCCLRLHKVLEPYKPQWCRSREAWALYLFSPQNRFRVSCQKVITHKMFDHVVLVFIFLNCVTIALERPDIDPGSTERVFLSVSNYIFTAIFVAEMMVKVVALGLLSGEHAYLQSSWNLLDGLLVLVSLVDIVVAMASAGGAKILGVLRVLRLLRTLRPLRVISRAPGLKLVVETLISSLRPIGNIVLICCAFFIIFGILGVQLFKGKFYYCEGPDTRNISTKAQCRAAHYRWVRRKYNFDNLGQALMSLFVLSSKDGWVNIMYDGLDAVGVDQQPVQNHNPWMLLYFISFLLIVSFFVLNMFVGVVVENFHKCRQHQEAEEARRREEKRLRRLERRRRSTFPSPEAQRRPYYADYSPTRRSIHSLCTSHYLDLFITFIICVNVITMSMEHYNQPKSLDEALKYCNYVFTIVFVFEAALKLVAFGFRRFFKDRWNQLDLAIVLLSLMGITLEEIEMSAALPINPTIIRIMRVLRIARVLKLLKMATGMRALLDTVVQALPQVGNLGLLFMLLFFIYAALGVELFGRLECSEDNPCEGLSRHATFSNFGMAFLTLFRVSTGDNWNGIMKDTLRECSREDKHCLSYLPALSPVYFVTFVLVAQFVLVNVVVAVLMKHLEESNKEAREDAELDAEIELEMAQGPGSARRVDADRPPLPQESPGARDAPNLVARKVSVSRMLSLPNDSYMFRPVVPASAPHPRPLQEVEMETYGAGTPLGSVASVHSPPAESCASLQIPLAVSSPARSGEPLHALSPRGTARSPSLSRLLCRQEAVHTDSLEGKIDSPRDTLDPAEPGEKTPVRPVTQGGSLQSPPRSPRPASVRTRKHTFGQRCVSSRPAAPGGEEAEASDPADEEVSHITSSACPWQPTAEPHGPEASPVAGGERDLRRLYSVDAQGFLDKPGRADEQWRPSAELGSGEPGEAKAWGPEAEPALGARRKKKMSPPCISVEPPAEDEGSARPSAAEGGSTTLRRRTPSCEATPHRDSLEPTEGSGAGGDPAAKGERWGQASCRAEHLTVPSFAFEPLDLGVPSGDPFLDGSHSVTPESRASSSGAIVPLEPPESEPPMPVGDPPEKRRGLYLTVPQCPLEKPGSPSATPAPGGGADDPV
Eukaryotic translation initiation factor 4E, sequence (P63073 whole entry): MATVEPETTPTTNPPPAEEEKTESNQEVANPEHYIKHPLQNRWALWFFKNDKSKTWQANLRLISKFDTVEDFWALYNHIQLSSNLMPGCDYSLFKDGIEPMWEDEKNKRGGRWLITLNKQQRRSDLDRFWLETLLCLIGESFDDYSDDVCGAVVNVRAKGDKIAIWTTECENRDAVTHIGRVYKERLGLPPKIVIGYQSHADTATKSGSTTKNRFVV

For `COc1ccc(NC(=O)c2ccco2)cc1NC(=O)c1cccc(OC(C)C)c1`, the EC50 [1] was 8.24 µM (active).

For `COc1ccc(-c2nn(-c3ccccc3)cc2C(=O)Nc2nccs2)cc1OC`, the CC50 [2] was 32 µM (active).

For `CCCOc1cccc(C(=O)N(Cc2ccco2)C2CCS(=O)(=O)C2)c1` (stereo not drawn), the IC50 (Prothrombin) was > 50 µM (not active).

For `Cc1ccc(C)c(S(=O)(=O)NCCCN2CCOCC2)c1`, the IC50 (Prothrombin) was > 50 µM (not active).

With `CCCCCCCN(C(=O)CCl)c1ccccc1C` the CC50 [2] was 2.82 µM (active), the AC50 [3] was 7.86 µM (active) and the EC50 (Protein RecA) was 0.893 µM (active).

In the case of `CC(C)NC(=O)c1ccc(C(C)C)cc1`, the IC50 (Prothrombin) is reported as > 50 µM (not active).

For `Fc1ccc(SCCc2ccccn2)cc1`, the IC50 (Coagulation factor XII) was > 50 µM (inactive).

For `CCCCCOC(=O)Nc1nnc(CCCCC)s1`, the IC50 (Coagulation factor XII) was > 50 µM (inactive).

For `CCc1cccc(NC(=O)C[S+]([O-])Cc2nc(-c3ccc(C)cc3)oc2C)c1` (stereo not drawn), the EC50 [1] was 3.17 µM (active).

With `O=C1NC(=O)N(Cc2ccccc2)C(=O)/C1=C/c1cnn(-c2ccccc2)c1` the IC50 [4] was 14.9 µM (active) and the IC50 [5] was > 50 µM (inactive).

With `O=C(NCc1ccco1)c1scc2c1OCCO2` the IC50 (Coagulation factor XII) was > 50 µM (inactive).

With `CCOC(=O)[C@H]1[C@H]2COc3ccc(Br)cc3[C@@H]2N2C(=O)c3cc(OC)c(OC)cc3NC(=O)[C@@]12C` the CC50 [2] was > 40 µM (active) and the IC50 (H9c2) was 15.5 µM (active).

With `COc1ccc(CC(CC(=O)O)C(=O)Nc2ccccc2)cc1` (stereo not drawn) the IC50 (Leucine aminopeptidase) was 47.2 µM (active).

In the case of `Cc1cccc(NC(=S)NC2CCCC2)n1`, the IC50 [4] is reported as 7.9 µM (active) and the IC50 [5] is reported as > 50 µM (inactive).

With `O=C(NC1CCCCC1)N(Cc1ccccc1)Cc1ccco1` the EC50 [1] was 3.68 µM (active).

In the case of `Nc1ccc(S(=O)(=O)N2CCCc3ccccc32)cc1`, the IC50 [6] is reported as > 64 µM (inactive).

With `O=C1CC(SCCc2nc3ccccc3[nH]2)C(=O)N1c1ccc(Cl)cc1` (stereo not drawn) the EC50 [1] was 613 µM (active).

With `O=C(NCCc1csc(-c2ccc(C(F)(F)F)cc2)n1)c1cccs1` the EC50 [1] was 4.14 µM (active).

For `Cc1ccc(S(=O)(=O)Nc2nc3c(s2)C(=O)CC(C)(C)C3)cc1`, the IC50 (Leucine aminopeptidase) was 94.4 µM (active).

For `Cc1ccc(C(=O)n2cnnc2N)cc1C`, the IC50 (Prothrombin) was 1.87 µM (active).

For `CCOC(=O)c1c(NC(=S)NC(=O)c2ccc(Cn3cc(Cl)cn3)o2)sc2c1CCC(C)C2` (stereo not drawn), the CC50 [2] was 12.2 µM (active), the EC50 [7] was 5.87 µM (active) and the EC50 [8] was 6.18 µM (active).

In the case of `C/C=C/c1ccc2c(c1)O[C@@H](CN(C)CC1CCCC1)[C@H](C)CN([C@@H](C)CO)S2(=O)=O`, the AC50 [9] is reported as 42.1 µM (active) and the AC50 [10] is reported as 22.4 µM (active).

In the case of `C[C@@H]1CN([C@@H](C)CO)C(=O)c2cccc(NC(=O)c3ccc(-c4nccs4)cc3)c2O[C@H]1CN(C)Cc1ccc2c(c1)OCO2`, the AC50 [10] is reported as 25.6 µM (active).

In the case of `CCCOc1ccc(CCC(=O)N/N=C/c2ccc([N+](=O)[O-])o2)cc1`, the EC50 [11] is reported as > 120 µM (not active), the CC50 [12] is reported as 13.1 µM (active) and the IC50 (cells) is reported as 5.03 µM (active). The EC50 [13] was > 120 µM (not active), the CC50 [14] was 19.3 µM (active) and the EC50 [15] was > 120 µM (not active).

With `CC1(C)C2CC=C(/C=N/n3cnnc3)C1C2` (stereo not drawn) the IC50 (Coagulation factor XII) was > 50 µM (inactive).

Reference: ChEMBL document CHEMBL1201862, “PubChem BioAssay data set” (2004)
